Measurements from patent USRE30241E, “Esters of 3-(hydroxy or hydroxymethyl)-4-hydroxyphenyl aminomethyl ketones” (Sterling Drug Inc., priority 1970, dated 1980).
Read-outs that look alike come from different tables or passages of the source.

Experiments:
[1] = tested on: carbachol- or histamine-induced bronchoconstriction; assay: Bronchodilator Test Method I, anesthetized dog, intravenous activity; type: in vivo; details: Canis lupus familiaris, read-out: Bronchodilatation; for inhibition in vivo at 0.068 mg/kg: 68 mcg/kg i.v.; for inhibition in vivo at 0.137 mg/kg: 137 mcg/kg i.v.; for inhibition in vivo at 0.274 mg/kg: 274 mcg/kg i.v.; for inhibition in vivo at 0.0012 mg/kg: 1.2 mcg/kg i.v.; for inhibition in vivo at 0.006 mg/kg: 6.0 mcg/kg i.v.; for inhibition in vivo at 0.025 mg/kg: 25 mcg/kg i.v.; for inhibition in vivo at 0.008 mg/kg: 8 mcg/kg i.v.; for inhibition in vivo at 0.032 mg/kg: 32 mcg/kg i.v.; for inhibition in vivo at 0.128 mg/kg: 128 mcg/kg i.v.
How it was run: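 Pentobarbital-anesthetized (30 mg/kg i.v.), open-chest, artificially ventilated dogs were given i.v. carbachol (4-6 µg/kg) or histamine diphosphate (35-45 µg/kg). Test compound was given i.v. mixed with, after, or 1-10 min before the constrictor.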

[2] = tested on: carbachol- or histamine-induced bronchoconstriction; assay: Bronchodilator Test Method I, anesthetized dog, intraduodenal activity; type: in vivo; details: Canis lupus familiaris, read-out: Bronchodilation; for inhibition in vivo at 0.068 mg/kg: 68 mcg/kg (salt) intraduodenal; for inhibition in vivo at 0.136 mg/kg: 136 mcg/kg (salt) intraduodenal; for inhibition in vivo at 0.032 mg/kg: 32 mcg/kg (salt) intraduodenal; for inhibition in vivo at 0.128 mg/kg: 128 mcg/kg (salt) intraduodenal
Description: Male and female dogs weighing 9-18 kg. each were anesthetized with pentobarbital sodium (30 mg./kg. i.v.). Each animal, with thorax opened at the midsternum, was maintained under artificial ventilation using a constant volume pump (250 ml./stroke; 10 to 12 strokes per minute) attached to the tracheal cannula. The flow of air was controlled by a glass or plastic valve which closed and opened respectively on inflow and outflow of the air to and from the tracheal cannula. Bronchoconstriction and/or bronchodilatation were measured from changes in the basal airway pressure reflected by a transducer attached to the sidearm of the cannula relayed to a polygraph.
Control bronchoconstrictions were induced by intravenous injections of carbachol (choline chloride carbamate) in doses ranging from 4 to 6 micrograms per kilogram or histamine diphosphate in doses ranging from 35 to 45 micrograms per kilogram. In the majority of test animals, the above doses of constrictor agents produced a 100-200 percent increase in the normal airway pressure or amplitude.
Injections were repeated at 20-30 minutes.
In intraduodenal studies, in the dog prepared for bronchodilation measurements, the duodenal segment of the small intestine was made easily accessible through a small mid-line incision in the abdomen. The test solution was injected into the duodenum using a fine needle. Commencing 5 minutes after medication, the degree and duration of bronchodilation were tested by injecting a control dose of carbachol or histamine at intervals of 30-60 minutes until the recovery or near-recovery was apparent. In some dogs showing an early recovery, a reference drug was also tested in the same dog 1.5-2 hours after the first medicine.

[3] = tested on: guinea pig bronchioles constricted by carbachol; assay: Bronchodilator Test Method II, in vitro perfused guinea pig lung
Description: In this method bronchodilator activity in vitro was determined by testing the effect of graded doses of the test compounds on guinea pig bronchioles constricted by carbachol, using the technique reported by Sollman and von Oettingen, Proc. Soc, Exp. Biol. Med., 25,692 (1928) as modified by Tainter, Pedden, and James, J. Pharm. Exp. Ther., 51, 371 (1934) and by Luduena, von Euler, Tullar, and Lands, Arch. intern. Pharmacol., III, 392 (1957).

## Cc1cccc(C(=O)Oc2ccc(C(O)CNC(C)(C)C)cc2OC(=O)c2cccc(C)c2)c1 (stereo not drawn) [Example 112, 3,4-bis(m-toluyloxy)-alpha-(tert-butylaminomethyl)benzyl alcohol]
[1]; 5 min, 5 min
  inhibition in vivo at 0.068 mg/kg: 38%
  inhibition in vivo at 0.137 mg/kg: 80%
  inhibition in vivo at 0.274 mg/kg: 80%
[1]; 0.5 h, 30 min
  inhibition in vivo at 0.068 mg/kg: 43%
  inhibition in vivo at 0.137 mg/kg: 60%
  inhibition in vivo at 0.274 mg/kg: 74%
[1]; 1 h, 60 min
  inhibition in vivo at 0.068 mg/kg: 27%
  inhibition in vivo at 0.137 mg/kg: 50%
  inhibition in vivo at 0.274 mg/kg: 57%
[1]; 2 h, 120 min
  inhibition in vivo at 0.137 mg/kg: 37%
  inhibition in vivo at 0.274 mg/kg: 54%
[1]; 3 h, 180 min
  inhibition in vivo at 0.137 mg/kg: 8%
  inhibition in vivo at 0.274 mg/kg: 33%
[1]; 4 h, 240 min
  inhibition in vivo at 0.274 mg/kg: 38%
[1]; 4.5 h, 270 min
  inhibition in vivo at 0.274 mg/kg: 25%
[2]; 5 min, 5 min
  inhibition in vivo at 0.068 mg/kg: 50%
  inhibition in vivo at 0.136 mg/kg: 42%
[2]; 10 min, 10 min
  inhibition in vivo at 0.068 mg/kg: 0%
  inhibition in vivo at 0.136 mg/kg: 59%
[2]; 0.5 h, 30 min
  inhibition in vivo at 0.136 mg/kg: 67%
[2]; 1 h, 60 min
  inhibition in vivo at 0.136 mg/kg: 53%
[2]; 2 h, 120 min
  inhibition in vivo at 0.136 mg/kg: 0%
[3]; carbachol (Doryl) 1:5 million
  ED50: 4.4 µg (base)
[3]; dose 10 mcg (base)
  Duration, Mean: 104.1 ± 34.9 min

## CC(=O)Oc1ccc(C(O)CNC(C)(C)C)cc1OC(=O)c1ccccc1C (stereo not drawn) [Example 147, 3-(o-toluyloxy)-4-acetoxy-alpha-(tert-butylaminomethyl)benzyl alcohol methanesulfonate]
[1]; 5 min, 5 min
  inhibition in vivo at 0.0012 mg/kg: 36%
  inhibition in vivo at 0.006 mg/kg: 77%
  inhibition in vivo at 0.025 mg/kg: 100%
[1]; 0.5 h, 30 min
  inhibition in vivo at 0.0012 mg/kg: 3%
  inhibition in vivo at 0.006 mg/kg: 9%
  inhibition in vivo at 0.025 mg/kg: 32%
[1]; 1 h, 60 min
  inhibition in vivo at 0.0012 mg/kg: 0%
  inhibition in vivo at 0.006 mg/kg: 0%
  inhibition in vivo at 0.025 mg/kg: 12%
[1]; 2 h, 120 min
  inhibition in vivo at 0.025 mg/kg: 4%
[3]; Doryl conc. 1:10 million
  ED50: 1.9 µg (base)
[3]; dose 5 mcg (base), Doryl conc. 1:10 million
  Duration, Mean: 15.9 ± 3.3 min

## CC(=O)OCc1cc(C(O)CNC(C)(C)C)ccc1OC(=O)c1ccc(C)cc1 (stereo not drawn) [Example 150, 3-acetoxymethyl-4-(p-toluyloxy)-alpha-(tert-butylaminomethyl)benzyl alcohol methanesulfonate]
[1]; 5 min, 5 min
  inhibition in vivo at 0.008 mg/kg: 42%
  inhibition in vivo at 0.032 mg/kg: 64%
  inhibition in vivo at 0.128 mg/kg: 85%
[1]; 0.5 h, 30 min
  inhibition in vivo at 0.008 mg/kg: 37%
  inhibition in vivo at 0.032 mg/kg: 66%
  inhibition in vivo at 0.128 mg/kg: 87%
[1]; 1 h, 60 min
  inhibition in vivo at 0.008 mg/kg: 44%
  inhibition in vivo at 0.032 mg/kg: 54%
  inhibition in vivo at 0.128 mg/kg: 67%
[1]; 2 h, 120 min
  inhibition in vivo at 0.008 mg/kg: 44%
  inhibition in vivo at 0.032 mg/kg: 40%
  inhibition in vivo at 0.128 mg/kg: 60%
[1]; 3 h, 180 min
  inhibition in vivo at 0.008 mg/kg: 32%
  inhibition in vivo at 0.032 mg/kg: 30%
  inhibition in vivo at 0.128 mg/kg: 52%
[1]; 4 h, 240 min
  inhibition in vivo at 0.008 mg/kg: 20%
  inhibition in vivo at 0.032 mg/kg: 0%
  inhibition in vivo at 0.128 mg/kg: 24%
[2]; 5 min, 5 min
  inhibition in vivo at 0.032 mg/kg: 12%
  inhibition in vivo at 0.128 mg/kg: 68%
[2]; 0.5 h, 30 min
  inhibition in vivo at 0.032 mg/kg: 12%
  inhibition in vivo at 0.128 mg/kg: 68%
[2]; 1 h, 60 min
  inhibition in vivo at 0.032 mg/kg: 12%
  inhibition in vivo at 0.128 mg/kg: 61%
[2]; 2 h, 120 min
  inhibition in vivo at 0.032 mg/kg: 0%
  inhibition in vivo at 0.128 mg/kg: 61%
[2]; 3 h, 180 min
  inhibition in vivo at 0.032 mg/kg: 0%
  inhibition in vivo at 0.128 mg/kg: 45%
[2]; 4 h, 240 min
  inhibition in vivo at 0.128 mg/kg: 39%
[3]; carbachol (Doryl) 1:5 million
  ED50 (printed in brackets, footnote **ED50): 9.3 µg (base)
[3]; dose 10 mcg (base)
  Duration, Mean: 25.5 ± 16.2 min
